Measured values: the kinase profiling compilation of Christmann-Franck et al. (2016)

How the values were obtained:
Experiment in all cases: radiometric filter-binding kinase assay, Kinase HotSpot
Details in all cases: compound 0.5 µM; ATP 10 µM
[1] = target: DCLK2 (human) (UniProt Q8N568)
[2] = target: NTRK3 (human) (UniProt Q16288)
[3] = target: RPS6KA4 KD2 (human) (UniProt O75676)
[4] = target: MAPKAPK5 (human) (UniProt Q8IW41)
[5] = target: FGFR1 (human) (UniProt P11362)
[6] = target: ULK2 (human) (UniProt Q8IYT8)
Chain of ULK2 (human) (Q8IYT8 whole entry, looked up): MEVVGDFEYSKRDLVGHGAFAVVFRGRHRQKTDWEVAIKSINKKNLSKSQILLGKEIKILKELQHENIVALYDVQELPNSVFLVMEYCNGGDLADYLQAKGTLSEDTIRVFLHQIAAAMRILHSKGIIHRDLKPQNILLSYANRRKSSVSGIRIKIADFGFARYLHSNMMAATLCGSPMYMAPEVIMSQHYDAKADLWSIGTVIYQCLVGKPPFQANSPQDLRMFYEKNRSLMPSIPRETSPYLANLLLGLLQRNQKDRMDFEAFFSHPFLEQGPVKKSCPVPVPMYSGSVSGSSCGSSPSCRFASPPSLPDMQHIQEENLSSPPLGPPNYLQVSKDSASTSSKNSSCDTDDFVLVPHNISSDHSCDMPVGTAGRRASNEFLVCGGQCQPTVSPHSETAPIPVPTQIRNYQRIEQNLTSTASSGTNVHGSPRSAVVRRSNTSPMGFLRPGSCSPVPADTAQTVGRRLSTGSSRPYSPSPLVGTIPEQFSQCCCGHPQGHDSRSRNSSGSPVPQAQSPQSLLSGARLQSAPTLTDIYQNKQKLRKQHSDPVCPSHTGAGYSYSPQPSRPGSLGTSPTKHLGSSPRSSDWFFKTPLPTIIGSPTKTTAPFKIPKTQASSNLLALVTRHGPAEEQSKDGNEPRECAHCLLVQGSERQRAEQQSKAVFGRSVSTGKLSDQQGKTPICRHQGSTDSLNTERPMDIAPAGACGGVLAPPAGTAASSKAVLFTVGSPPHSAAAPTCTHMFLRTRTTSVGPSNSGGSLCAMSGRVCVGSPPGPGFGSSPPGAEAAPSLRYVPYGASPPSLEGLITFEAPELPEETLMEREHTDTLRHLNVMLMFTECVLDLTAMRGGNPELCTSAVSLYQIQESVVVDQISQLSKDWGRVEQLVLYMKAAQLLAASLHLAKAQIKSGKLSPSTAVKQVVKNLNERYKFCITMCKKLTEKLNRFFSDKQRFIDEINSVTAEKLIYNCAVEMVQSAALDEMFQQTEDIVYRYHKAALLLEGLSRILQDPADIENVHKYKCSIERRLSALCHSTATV

[7] = target: AURKA (human) (UniProt O14965)
[8] = target: IKBKB (human) (UniProt O14920)
[9] = target: RPS6KA1 KD1 KD2 (human) (UniProt Q15418)
[10] = target: DDR2 (human) (UniProt Q16832)
[11] = target: MKNK2 (human) (UniProt Q9HBH9)
[12] = target: PHKG1 (human) (UniProt Q16816)
Chain of PHKG1 (human) (Q16816 whole entry, looked up): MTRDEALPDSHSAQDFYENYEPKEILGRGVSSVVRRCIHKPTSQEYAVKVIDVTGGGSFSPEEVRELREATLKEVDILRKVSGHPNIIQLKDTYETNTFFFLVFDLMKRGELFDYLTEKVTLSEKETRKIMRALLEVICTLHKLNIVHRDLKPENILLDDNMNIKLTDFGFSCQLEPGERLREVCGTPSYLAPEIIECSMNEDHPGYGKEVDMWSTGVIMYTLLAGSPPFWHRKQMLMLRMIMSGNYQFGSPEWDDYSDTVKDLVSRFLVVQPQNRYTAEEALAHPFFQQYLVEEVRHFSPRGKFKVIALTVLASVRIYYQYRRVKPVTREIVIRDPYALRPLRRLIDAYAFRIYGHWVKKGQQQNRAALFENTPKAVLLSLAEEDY

[13] = target: CDK3 CCNE1 (human) (UniProt Q00526+P24864)
[14] = target: BRSK2 (human) (UniProt Q8IWQ3)
[15] = target: CLK3 (human) (UniProt P49761)
[16] = target: STK24 (human) (UniProt Q9Y6E0)
[17] = target: RPS6KA2 KD1 KD2 (human) (UniProt Q15349)
[18] = target: PRKCD (human) (UniProt Q05655)
[19] = target: ABL1 (human) (UniProt P00519)
[20] = target: CAMK2B (human) (UniProt Q13554)
Chain of CAMK2B (human) (Q13554 whole entry, looked up): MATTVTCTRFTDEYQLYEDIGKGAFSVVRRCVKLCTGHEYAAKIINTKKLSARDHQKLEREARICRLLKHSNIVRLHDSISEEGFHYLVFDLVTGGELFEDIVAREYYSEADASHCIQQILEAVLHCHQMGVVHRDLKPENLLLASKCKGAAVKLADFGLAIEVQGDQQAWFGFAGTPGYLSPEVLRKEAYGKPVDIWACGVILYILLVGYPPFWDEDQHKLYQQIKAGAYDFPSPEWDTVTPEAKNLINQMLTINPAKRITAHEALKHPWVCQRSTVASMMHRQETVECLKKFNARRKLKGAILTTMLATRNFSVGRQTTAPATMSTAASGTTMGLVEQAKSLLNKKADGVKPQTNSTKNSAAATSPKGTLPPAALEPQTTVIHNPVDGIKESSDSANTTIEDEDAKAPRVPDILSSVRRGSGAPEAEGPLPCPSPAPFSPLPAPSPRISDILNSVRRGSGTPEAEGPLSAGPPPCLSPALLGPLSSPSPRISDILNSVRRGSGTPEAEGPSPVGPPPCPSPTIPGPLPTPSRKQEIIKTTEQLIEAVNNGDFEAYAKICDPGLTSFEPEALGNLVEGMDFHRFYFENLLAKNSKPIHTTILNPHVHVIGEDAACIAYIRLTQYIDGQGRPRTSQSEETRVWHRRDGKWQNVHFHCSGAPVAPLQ

[21] = target: PRKCH (human) (UniProt P24723)
[22] = target: GRK4 (human) (UniProt P32298)
[23] = target: MLTK (human) (UniProt Q9NYL2)
[24] = target: MAPK14 (human) (UniProt Q16539)
[25] = target: YES1 (human) (UniProt P07947)
[26] = target: CDK4 CCND1 (human) (UniProt P24385+P11802)
[27] = target: RPS6KB2 (human) (UniProt Q9UBS0)
[28] = target: RPS6KA6 KD1 KD2 (human) (UniProt Q9UK32)
[29] = target: LTK (human) (UniProt P29376)
[30] = target: EPHB3 (human) (UniProt P54753)
[31] = target: NEK4 (human) (UniProt P51957)
[32] = target: BLK (human) (UniProt P51451)
Chain of BLK (human) (P51451 whole entry, looked up): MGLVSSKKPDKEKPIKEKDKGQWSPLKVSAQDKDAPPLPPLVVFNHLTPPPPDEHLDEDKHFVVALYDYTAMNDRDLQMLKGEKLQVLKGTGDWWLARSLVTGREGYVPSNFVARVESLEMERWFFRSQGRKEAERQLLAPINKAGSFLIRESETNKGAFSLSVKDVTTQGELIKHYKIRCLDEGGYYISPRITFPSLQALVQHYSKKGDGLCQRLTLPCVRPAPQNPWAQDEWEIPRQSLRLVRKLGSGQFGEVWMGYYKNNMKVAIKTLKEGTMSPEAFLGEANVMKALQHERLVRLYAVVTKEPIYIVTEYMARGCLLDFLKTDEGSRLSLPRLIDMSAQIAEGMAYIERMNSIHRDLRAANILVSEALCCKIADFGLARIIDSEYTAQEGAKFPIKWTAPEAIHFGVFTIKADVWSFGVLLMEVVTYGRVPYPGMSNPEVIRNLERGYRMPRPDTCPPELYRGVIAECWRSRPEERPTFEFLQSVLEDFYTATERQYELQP

[33] = target: MAPK1 (human) (UniProt P28482)
Chain of MAPK1 (human) (P28482 whole entry, looked up): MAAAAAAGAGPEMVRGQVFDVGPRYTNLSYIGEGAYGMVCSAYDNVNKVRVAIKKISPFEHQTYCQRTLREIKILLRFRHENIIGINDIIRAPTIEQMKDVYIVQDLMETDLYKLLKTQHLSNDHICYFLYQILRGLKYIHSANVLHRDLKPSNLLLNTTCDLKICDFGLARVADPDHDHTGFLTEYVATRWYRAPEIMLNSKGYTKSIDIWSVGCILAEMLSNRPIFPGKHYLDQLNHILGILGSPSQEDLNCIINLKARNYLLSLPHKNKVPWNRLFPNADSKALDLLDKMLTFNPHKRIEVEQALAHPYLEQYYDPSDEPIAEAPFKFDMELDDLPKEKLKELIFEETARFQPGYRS

[34] = target: WEE1 (human) (UniProt P30291)
Chain of WEE1 (human) (P30291 whole entry, looked up): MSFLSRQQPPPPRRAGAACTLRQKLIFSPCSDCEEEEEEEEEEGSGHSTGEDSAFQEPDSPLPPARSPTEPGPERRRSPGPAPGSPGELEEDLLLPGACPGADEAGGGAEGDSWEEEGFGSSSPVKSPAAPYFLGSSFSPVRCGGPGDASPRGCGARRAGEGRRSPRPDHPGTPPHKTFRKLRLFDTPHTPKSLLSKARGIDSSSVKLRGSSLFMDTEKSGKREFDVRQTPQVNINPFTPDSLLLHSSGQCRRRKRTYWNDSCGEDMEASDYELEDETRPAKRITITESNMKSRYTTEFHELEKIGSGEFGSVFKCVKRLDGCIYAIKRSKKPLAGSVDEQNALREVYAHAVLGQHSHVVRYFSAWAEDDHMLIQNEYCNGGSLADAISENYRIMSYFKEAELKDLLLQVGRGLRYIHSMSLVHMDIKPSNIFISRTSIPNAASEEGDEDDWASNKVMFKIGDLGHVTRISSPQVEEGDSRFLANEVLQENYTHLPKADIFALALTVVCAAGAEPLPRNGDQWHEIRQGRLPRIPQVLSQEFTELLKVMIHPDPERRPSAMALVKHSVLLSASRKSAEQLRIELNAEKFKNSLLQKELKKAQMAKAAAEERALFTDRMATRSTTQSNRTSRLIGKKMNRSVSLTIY

[35] = target: TAOK1 (human) (UniProt Q7L7X3)
[36] = target: RET (human) (UniProt P07949)
[37] = target: TXK (human) (UniProt P42681)
[38] = target: TAOK2 (human) (UniProt Q9UL54)
[39] = target: MAPKAPK2 (human) (UniProt P49137)
Chain of MAPKAPK2 (human) (P49137 whole entry, looked up): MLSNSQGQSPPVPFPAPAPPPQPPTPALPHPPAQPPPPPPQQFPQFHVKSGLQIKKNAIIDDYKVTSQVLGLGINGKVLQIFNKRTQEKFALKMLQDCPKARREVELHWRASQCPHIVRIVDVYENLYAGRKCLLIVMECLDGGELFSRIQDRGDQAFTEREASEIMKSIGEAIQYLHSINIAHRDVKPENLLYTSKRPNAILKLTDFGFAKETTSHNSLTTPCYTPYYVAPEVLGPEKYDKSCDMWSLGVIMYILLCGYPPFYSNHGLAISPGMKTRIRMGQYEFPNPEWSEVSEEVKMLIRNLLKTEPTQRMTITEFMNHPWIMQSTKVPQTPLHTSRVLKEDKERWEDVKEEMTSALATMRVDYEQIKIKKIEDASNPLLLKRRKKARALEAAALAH

[40] = target: CSNK2A1 (human) (UniProt P68400)
[41] = target: STK17A (human) (UniProt Q9UEE5)
[42] = target: TYRO3 (human) (UniProt Q06418)
Chain of TYRO3 (human) (Q06418 whole entry, looked up): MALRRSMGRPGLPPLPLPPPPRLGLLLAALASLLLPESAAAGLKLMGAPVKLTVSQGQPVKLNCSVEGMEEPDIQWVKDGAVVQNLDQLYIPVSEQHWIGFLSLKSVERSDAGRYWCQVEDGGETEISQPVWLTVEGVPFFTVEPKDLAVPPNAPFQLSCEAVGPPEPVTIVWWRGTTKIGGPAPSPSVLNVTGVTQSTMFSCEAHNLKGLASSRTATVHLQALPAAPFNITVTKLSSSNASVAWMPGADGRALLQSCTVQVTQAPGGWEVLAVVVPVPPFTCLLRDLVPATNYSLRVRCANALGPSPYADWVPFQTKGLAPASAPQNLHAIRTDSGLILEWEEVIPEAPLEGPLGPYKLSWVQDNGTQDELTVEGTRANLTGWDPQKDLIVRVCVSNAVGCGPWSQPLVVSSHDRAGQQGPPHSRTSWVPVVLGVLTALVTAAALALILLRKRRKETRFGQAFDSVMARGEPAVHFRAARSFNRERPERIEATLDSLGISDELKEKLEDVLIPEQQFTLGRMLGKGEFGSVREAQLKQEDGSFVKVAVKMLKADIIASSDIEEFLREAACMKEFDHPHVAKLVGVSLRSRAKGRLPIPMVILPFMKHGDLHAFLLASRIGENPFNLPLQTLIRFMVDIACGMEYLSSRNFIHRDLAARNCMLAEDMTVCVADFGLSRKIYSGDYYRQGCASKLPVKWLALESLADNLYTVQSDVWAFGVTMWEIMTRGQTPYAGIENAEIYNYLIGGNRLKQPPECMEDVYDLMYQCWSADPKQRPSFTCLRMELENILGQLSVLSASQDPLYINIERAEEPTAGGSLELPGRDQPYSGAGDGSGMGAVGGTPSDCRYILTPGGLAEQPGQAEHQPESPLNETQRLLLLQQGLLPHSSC

O=C1NC(=O)C(c2c[nH]c3ccccc23)=C1c1c[nH]c2ccccc12
residual activity [1]: 89.3%
residual activity [2]: 72.5%
residual activity [3]: 87.4%
residual activity [4]: 119%
residual activity [5]: 41.4%
residual activity [6]: 92.9%
residual activity [7]: 108%
residual activity [8]: 106%
residual activity [9]: 57.6%
residual activity [10]: 101%
residual activity [11]: 89.6%
residual activity [12]: 74.9%
residual activity [13]: 91.5%
residual activity [14]: 86%
residual activity [15]: 102%
residual activity [16]: 61.5%
residual activity [17]: 11.5%
residual activity [18]: 55.5%
residual activity [19]: 89.1%
residual activity [20]: 96.9%
residual activity [21]: 42%
residual activity [22]: 97.1%
residual activity [23]: 107%
residual activity [24]: 109%
residual activity [25]: 88.4%
residual activity [26]: 97.4%
residual activity [27]: 94.6%
residual activity [28]: 19.2%
residual activity [29]: 85.1%
residual activity [30]: 94.3%
residual activity [31]: 96.4%
residual activity [32]: 93.7%
residual activity [33]: 90.5%
residual activity [34]: 98.1%
residual activity [35]: 93.7%
residual activity [36]: 80.6%
residual activity [37]: 101%
residual activity [38]: 102%
residual activity [39]: 95.6%
residual activity [40]: 106%
residual activity [41]: 92.2%
residual activity [42]: 101%

Cn1sc(=O)n(Cc2ccccc2)c1=O
residual activity [1]: 98.5%
residual activity [2]: 107%
residual activity [3]: 99%
residual activity [4]: 94.2%
residual activity [5]: 95.6%
residual activity [6]: 105%
residual activity [7]: 104%
residual activity [8]: 112%
residual activity [9]: 97.6%
residual activity [10]: 102%
residual activity [11]: 92.1%
residual activity [12]: 102%
residual activity [13]: 78.1%
residual activity [14]: 99.4%
residual activity [15]: 83%
residual activity [16]: 105%
residual activity [17]: 104%
residual activity [18]: 94.1%
residual activity [19]: 104%
residual activity [20]: 102%
residual activity [21]: 89%
residual activity [22]: 101%
residual activity [23]: 100%
residual activity [24]: 101%
residual activity [25]: 96.3%
residual activity [26]: 98.2%
residual activity [27]: 101%
residual activity [28]: 104%
residual activity [29]: 101%
residual activity [30]: 91.3%
residual activity [31]: 98%
residual activity [32]: 101%
residual activity [33]: 93.1%
residual activity [34]: 92.3%
residual activity [35]: 88.9%
residual activity [36]: 106%
residual activity [37]: 99.8%
residual activity [38]: 91%
residual activity [39]: 102%
residual activity [40]: 95.4%
residual activity [41]: 101%
residual activity [42]: 99.9%

COc1ccc(OC)c2c(=S)c3ccccc3[nH]c12
residual activity [1]: 94.6%
residual activity [2]: 93.6%
residual activity [3]: 93.5%
residual activity [4]: 109%
residual activity [5]: 89.6%
residual activity [6]: 94.7%
residual activity [7]: 116%
residual activity [8]: 103%
residual activity [9]: 94.6%
residual activity [10]: 97.1%
residual activity [11]: 86.2%
residual activity [12]: 83%
residual activity [13]: 87.7%
residual activity [14]: 92.5%
residual activity [15]: 96.3%
residual activity [16]: 78.9%
residual activity [17]: 87.4%
residual activity [18]: 103%
residual activity [19]: 91.7%
residual activity [20]: 104%
residual activity [21]: 86.2%
residual activity [22]: 103%
residual activity [23]: 94%
residual activity [24]: 104%
residual activity [25]: 89.2%
residual activity [26]: 93.5%
residual activity [27]: 105%
residual activity [28]: 85.2%
residual activity [29]: 84.5%
residual activity [30]: 91%
residual activity [31]: 87.7%
residual activity [32]: 96.5%
residual activity [33]: 91.5%
residual activity [34]: 102%
residual activity [35]: 95.7%
residual activity [36]: 82.8%
residual activity [37]: 101%
residual activity [38]: 100%
residual activity [39]: 94.6%
residual activity [40]: 100%
residual activity [41]: 90.3%
residual activity [42]: 97.1%

CCN(CC)CCCCN1c2ccccc2Oc2ccc(Cl)cc21
residual activity [1]: 101%
residual activity [2]: 103%
residual activity [3]: 80.8%
residual activity [4]: 95.9%
residual activity [5]: 105%
residual activity [6]: 103%
residual activity [7]: 93.3%
residual activity [8]: 96.6%
residual activity [9]: 97.5%
residual activity [10]: 99.4%
residual activity [11]: 111%
residual activity [12]: 96.5%
residual activity [13]: 90.3%
residual activity [14]: 107%
residual activity [15]: 104%
residual activity [16]: 90%
residual activity [17]: 88%
residual activity [18]: 95.4%
residual activity [19]: 107%
residual activity [20]: 107%
residual activity [21]: 108%
residual activity [22]: 102%
residual activity [23]: 94.4%
residual activity [24]: 95.8%
residual activity [25]: 88.5%
residual activity [26]: 107%
residual activity [27]: 107%
residual activity [28]: 109%
residual activity [29]: 98.4%
residual activity [30]: 112%
residual activity [31]: 110%
residual activity [32]: 106%
residual activity [33]: 84.7%
residual activity [34]: 92.7%
residual activity [35]: 97.9%
residual activity [36]: 96.3%
residual activity [37]: 101%
residual activity [38]: 95.3%
residual activity [39]: 97.2%
residual activity [40]: 96.2%
residual activity [41]: 96.1%
residual activity [42]: 103%
